Consider nine compounds from ChEMBL document CHEMBL6182917, “Molecular-Level Strategy from Bottom-Up to Acquire High-Efficiency Antimicrobial Peptides” (J Med Chem, 2025).

The source made the active and inactive calls. No cut-off for these calls is given here.

Data set [1] has as its system Staphylococcus aureus. Nature of the data set: Antimicrobial activity against Staphylococcus aureus ATCC 29213 assessed as appearance of deformed bacteria at 20 uM incubated for 2 hrs by SEM analysis. Format: functional, organism-based.
Data set [2] relates to Staphylococcus aureus. Nature of the data set: Antibiofilm activity against Methicillin resistant Staphylococcus aureus ATCC 43300 assessed as inhibition of biofilm formation at 5 uM incubated for 48 hrs by crystal violet staining based microplate reader analysis. Format: functional, organism-based.
Data set [3] deals with Staphylococcus aureus. As to the kind of experiment: Antibacterial activity against Methicillin resistant Staphylococcus aureus ATCC 43300 assessed as reduction in bacterial growth at 2 to 5 uM. Format: functional, organism-based. Conditions: dose 2-5 µM.
The subject of data set [4] is Staphylococcus aureus. As to the kind of experiment: Antimicrobial activity against Staphylococcus aureus ATCC 29213 assessed as appearance of wrinkled bacteria by measuring leakage at 20 uM incubated for 2 hrs by SEM analysis. Format: functional, organism-based.
Data set [5] deals with Staphylococcus aureus. Nature of the data set: Antibiofilm activity against Staphylococcus aureus ATCC 29213 assessed as damaged bacterial cells by measuring red fluorescence at 20 uM incubated for 12 hrs by SYTO9/PI staining based confocal laser scanning microscopic analysis. Format: functional, organism-based.
Data set [6] deals with Staphylococcus aureus. Nature of the data set: Antibiofilm activity against Staphylococcus aureus ATCC 29213 assessed as increase in green fluorescence at 5 uM incubated for 12 hrs by SYTO9/PI staining based confocal laser scanning microscopic analysis. Format: functional, organism-based.
The subject of data set [7] is Staphylococcus aureus. As to the kind of experiment: Antimicrobial activity against Staphylococcus aureus ATCC 29213 assessed as reduction in bacterial survival at 20 uM incubated for 8 hrs by spectrophotometric analysis relative to control. Format: functional.
Data set [8] relates to Staphylococcus aureus. As to the kind of experiment: Antibiofilm activity against Staphylococcus aureus ATCC 29213 assessed as inhibition of biofilm formation at 5 uM incubated for 48 hrs by crystal violet staining based microplate reader analysis. Format: functional, organism-based.
The subject of data set [9] is Staphylococcus aureus. As to the kind of experiment: Antimicrobial activity against Staphylococcus aureus ATCC 29213 assessed as appearance of damaged bacteria by measuring leakage at 20 uM incubated for 2 hrs by SEM analysis. Format: functional, organism-based.
Data set [10] concerns Staphylococcus aureus. Nature of the data set: Antibiofilm activity against Staphylococcus aureus ATCC 29213 assessed as biofilm eradication at 10 uM incubated for 48 hrs by crystal violet staining based microplate reader analysis relative to control. Format: functional.
In data set [11] the test system is Staphylococcus aureus. As to the kind of experiment: Antimicrobial activity against Staphylococcus aureus ATCC 29213 assessed as large area of intracellular content at 20 uM incubated for 2 hrs by SEM analysis. Format: functional, organism-based.
Data set [12] relates to Staphylococcus aureus. As to the kind of experiment: Antimicrobial activity against Staphylococcus aureus ATCC 29213 assessed as inhibition of microbial growth at 80 uM incubated for 10 hrs by spectrophotometric analysis. Format: functional, organism-based.
Data set [13] has as its system Staphylococcus aureus. As to the kind of experiment: Antibacterial activity against Staphylococcus aureus infected in male Sprague-Dawley rat wound model assessed as wound healing at 2 uM administered every 2 days and measured after 10 days. Format: functional, organism-based. The settings on record: time 10.0 day.
Data set [14] concerns Staphylococcus aureus. As to the kind of experiment: Antibacterial activity against Staphylococcus aureus infected in male Sprague-Dawley rat wound model assessed as wound healing with newly formed epidermal tissues at 2 uM administered every 2 days and measured after 10 days. Format: functional, organism-based. The settings on record: time 10.0 day.
The test system of data set [15] is Staphylococcus aureus. Nature of the data set: Antibacterial activity against Methicillin resistant Staphylococcus aureus infected in male Sprague-Dawley rat wound model assessed as wound closure at 2 uM administered every 2 days and measured on day 10 (reference value: 66.84%). Format: functional. The settings on record: time 10 day.
The subject of data set [16] is Staphylococcus aureus. As to the kind of experiment: Antibacterial activity against Staphylococcus aureus infected in male Sprague-Dawley rat wound model assessed as wound closure at 2 uM administered every 2 days and measured on day 4 relative to control. Format: functional. The settings on record: time 4 day.
Data set [17] has as its system Staphylococcus aureus. As to the kind of experiment: Antibiofilm activity against Staphylococcus aureus ATCC 29213 assessed as damaged bacterial cells by measuring red fluorescence at 5 uM incubated for 12 hrs by SYTO9/PI staining based confocal laser scanning microscopic analysis. Format: functional, organism-based.
Data set [18] deals with Staphylococcus aureus. Nature of the data set: Antimicrobial activity against Staphylococcus aureus ATCC 29213 assessed as appearance of damaged bacteria at 5 uM incubated for 2 hrs by SEM analysis relative to control. Format: functional.
Data set [19] concerns Escherichia coli. As to the kind of experiment: Antibacterial activity against Escherichia coli ATCC 25922 incubated for 18 hrs. Format: functional.
For data set [20], the system named is Staphylococcus aureus. Nature of the data set: Antimicrobial activity against Staphylococcus aureus ATCC 29213 assessed as reduction in bacterial survival at 5 uM incubated for 4 hrs by spectrophotometric analysis relative to control. Format: functional.
The nature of data set [21]: Hemolytic activity in rabbit RBC assessed as hemolytic rate at 32 uM incubated for 1 hrs by spectrophotometric analysis. Format: toxicity, cell-based, Oryctolagus cuniculus, Erythrocyte. The settings on record: red blood cells (RBC), read-out: Activity.
Data set [22] deals with Staphylococcus aureus. Nature of the data set: Antimicrobial activity against Staphylococcus aureus ATCC 29213 assessed as reduction in bacterial survival at 5 uM incubated for 8 hrs by spectrophotometric analysis relative to control. Format: functional.
Data set [23] deals with Aggregatibacter actinomycetemcomitans. Nature of the data set: Antibacterial activity against Actinobacillus actinomycetemcomitans ATCC 43717 incubated for 18 hrs. Format: functional.
Data set [24] deals with Staphylococcus aureus. Nature of the data set: Antibacterial activity against Methicillin resistant Staphylococcus aureus infected in male Sprague-Dawley rat wound model assessed as wound closure at 2 uM administered every 2 days and measured on day 7 (reference value: 66.84%). Format: functional. The settings on record: time 7 day.
In data set [25] the test system is Staphylococcus aureus. Nature of the data set: Antibiofilm activity against Staphylococcus aureus ATCC 29213 assessed as disappearance of colony formation at 2 uM incubated for 48 hrs by crystal violet staining based microplate reader analysis. Format: functional, organism-based.
In data set [26] the test system is Streptococcus mutans. As to the kind of experiment: Bactericidal activity against Streptococcus mutans ATCC 25175 incubated for 18 hrs. Format: functional.
Data set [27] relates to MC3T3-E1. Nature of the data set: Cytotoxicity against mouse MC3T3-E1 cells assessed as reduction in cell viability at 2 uM incubated for 2 days by CCK-8 assay relative to control. Format: toxicity, cell-based. Conditions: mc3t3-e1, 48 h, time 2 day. (Tetrazolium dyes change colour on reduction, which living cells bring about.)
Data set [28] has as its system Staphylococcus aureus. As to the kind of experiment: Antibiofilm activity against Staphylococcus aureus ATCC 29213 assessed as inhibition of biofilm formation at 2 uM incubated for 48 hrs by crystal violet staining based microplate reader analysis. Format: functional, organism-based.
In data set [29] the test system is MC3T3-E1. As to the kind of experiment: Cytotoxicity against mouse MC3T3-E1 cells assessed as reduction in cell viability at > 10 uM incubated for 2 days by CCK-8 assay. Conditions: mc3t3-e1, 48 h, time 2 day. Format: toxicity, cell-based.
Data set [30] has as its system Staphylococcus aureus. As to the kind of experiment: Antibacterial activity against Methicillin resistant Staphylococcus aureus ATCC 43300 incubated for 18 hrs. Format: functional.
Data set [31] relates to Aggregatibacter actinomycetemcomitans. As to the kind of experiment: Antibiofilm activity against Actinobacillus actinomycetemcomitans ATCC 43717 assessed as inhibition of biofilm formation at 5 uM incubated for 48 hrs by crystal violet staining based microplate reader analysis. Format: functional, organism-based.
Data set [32] has as its system Escherichia coli. As to the kind of experiment: Bactericidal activity against Escherichia coli ATCC 25922 incubated for 18 hrs. Format: functional.
Data set [33] concerns Staphylococcus aureus. As to the kind of experiment: Bactericidal activity against Methicillin resistant Staphylococcus aureus ATCC 43300 incubated for 18 hrs. Format: functional.
The subject of data set [34] is Staphylococcus aureus. Nature of the data set: Antimicrobial activity against Staphylococcus aureus ATCC 29213 assessed as reduction in bacterial survival at 5 uM incubated for 2 hrs by spectrophotometric analysis relative to control. Format: functional.
Data set [35] relates to Staphylococcus aureus. As to the kind of experiment: Antimicrobial activity against Staphylococcus aureus ATCC 29213 assessed as inhibition of microbial growth at 5 uM incubated for 10 hrs by spectrophotometric analysis relative to control. Format: functional. On the set-up: scale not given: the % may be the effect or the level left.
Data set [36] relates to Staphylococcus aureus. Nature of the data set: Antimicrobial activity against Staphylococcus aureus ATCC 29213 assessed as disappearance of normal shape at 20 uM incubated for 2 hrs by SEM analysis. Format: functional, organism-based.
Data set [37] relates to Aggregatibacter actinomycetemcomitans. As to the kind of experiment: Bactericidal activity against Actinobacillus actinomycetemcomitans ATCC 43717 incubated for 18 hrs. Format: functional.
Data set [38] has as its system Streptococcus mutans. As to the kind of experiment: Antibacterial activity against Streptococcus mutans ATCC 25175 incubated for 18 hrs. Format: functional.
Data set [39] concerns Streptococcus mutans. Nature of the data set: Antibiofilm activity against Streptococcus mutans ATCC 25175 assessed as inhibition of biofilm formation at 5 uM incubated for 48 hrs by crystal violet staining based microplate reader analysis. Format: functional, organism-based.
The test system of data set [40] is Staphylococcus aureus. Nature of the data set: Antimicrobial activity against Staphylococcus aureus ATCC 29213 assessed as appearance of intracellular content in whole area at 20 uM incubated for 2 hrs by SEM analysis. Format: functional, organism-based.
The test system of data set [41] is Staphylococcus aureus. As to the kind of experiment: Antibiofilm activity against Methicillin resistant Staphylococcus aureus ATCC 43300 assessed as reduction in colony count at 2 to 5 uM incubated for 24 hrs by CFU assay. Format: functional, organism-based. The settings on record: dose 2-5 µM.
The test system of data set [42] is Staphylococcus aureus. Nature of the data set: Antimicrobial activity against Staphylococcus aureus ATCC 29213 assessed as intracellular content leakage at 20 uM incubated for 2 hrs by SEM analysis. Format: functional, organism-based.

Regarding H-GLFDIIKKIAEFS-NH2, in the data set on Staphylococcus aureus [1], the outcome was Active.
Same read-out and setting: for H-GLFKIIKKIAKSG-NH2 the value was “Active”.
Regarding `CCn1cc(C(=O)O)c(=O)c2cc(F)c(N3CCNCC3)cc21`, the Activity result in the data set with Staphylococcus aureus [2] was “Active; Weaker Inhibition Of Biofilm Observed”. For the same compound, the result in the data set with Staphylococcus aureus [3] was inactive.
For the compound H-FGLKIIKKIAKSF-NH2, the result in the data set on Staphylococcus aureus [4], in the data set with Staphylococcus aureus [5], in the data set with Staphylococcus aureus [8], in the data set on Staphylococcus aureus [9] and in the data set on Staphylococcus aureus [11] was Active. The result in the data set on Staphylococcus aureus [6] was inactive. Further, the Activity amounted to 6.45% in the data set on Staphylococcus aureus [7] and 100% in the data set with Staphylococcus aureus [10].
Take H-FLFDIIKKIAESG-NH2: in the data set with Staphylococcus aureus [12], the result was Active.
Take `CO[C@@]1(NC(=O)Cc2cccs2)C(=O)N2C(C(=O)O)=C(COC(N)=O)CS[C@@H]21` [CEFOXITIN]: the result in the data set on Staphylococcus aureus [13] and in the data set with Staphylococcus aureus [14] was Active. Besides, the results for the Activity with Staphylococcus aureus [15], in the data set with Staphylococcus aureus [2] and with Staphylococcus aureus [16] were 77.35%, “Active; Weaker Inhibition Of Biofilm Observed” and 66.13%, respectively. The outcome in the data set on Staphylococcus aureus [3] was inactive.
Consider H-FGLDIIKKIAESF-NH2, for which the outcome in the data set with Staphylococcus aureus [12] and in the data set with Staphylococcus aureus [1] was Active.
Take H-GLFKIIKKIAKSF-NH2: the outcome with Staphylococcus aureus [17], with Staphylococcus aureus [13], in the data set on Staphylococcus aureus [25], with Staphylococcus aureus [5], with Staphylococcus aureus [14] and in the data set with Staphylococcus aureus [28] was Active. For the same compound, the result (in data set [31]; in the data set with Staphylococcus aureus [2]; in the data set with Staphylococcus aureus [36]; in the data set on Streptococcus mutans [39]; in the data set on Staphylococcus aureus [11]; in the data set with Staphylococcus aureus [40]) was Active. Moreover, the result in the data set on Staphylococcus aureus [41] was Active. The Activity in the data set with Staphylococcus aureus [18] is reported as 100%; with Staphylococcus aureus [20], 8.89%; in the data set with Staphylococcus aureus [22], 8.24%; in the data set on Staphylococcus aureus [24], “<=92.65%”; in the data set with Staphylococcus aureus [15] it was 100%; with Staphylococcus aureus [7], 6.7%. Moreover, the Activity was 85.49% in the data set with MC3T3-E1 [27]; “Toxic” in the data set with MC3T3-E1 [29]; 68.16% in the data set on Staphylococcus aureus [16]; 11.54% in the data set with Staphylococcus aureus [34]; 100% with Staphylococcus aureus [35]. Further, the MIC (in the data set with Escherichia coli [19]; in [23]; in the data set on Staphylococcus aureus [30]; in the data set with Streptococcus mutans [38]) was no more than 10 µM each time. Besides, in [21], the hemolysis at 1 h, 32 µM was less than 10%. The MBC (against Streptococcus mutans [26]; with Escherichia coli [32]; against Staphylococcus aureus [33]; in data set [37]) was no more than 10 µM each time.
Regarding H-GLFDIIKKIAESF-NH2, the MIC (with Escherichia coli [19]; in [23]; in the data set with Staphylococcus aureus [30]; in the data set with Streptococcus mutans [38]) was no less than 80 µM throughout. The hemolysis at 1 h, 32 µM in data set [21] was less than 10%. The Activity with MC3T3-E1 [27] worked out at 91.16%. In addition, in the data set with Staphylococcus aureus [42], the result was Active.
